From US20070037887A1, “Blockade of mtor to prevent a hormonal adaptive response” (University of Virginia Patent Foundation, priority 2003, published 2007)

Experiments:
[1] = target: T1, mTOR (Rattus norvegicus, UniProt P42346); experiment: Immune complex assay of mTOR activity after incubating 293T cells with compound; format: cell-based; conditions: for mTOR activity: 293T cells incubated with increasing concentrations
T1 construct: expressed in transfected cells; host or cells: 293T
Description: FIGS. 12A & 12B represent data showing the effects of incubating cells with increasing concentrations of FTS and GTS on mTOR activity and mTOR association with raptor and mLST8. AU1-mTOR, HA-raptor, and HAmLST8 were overexpressed in 293T cells. The cells were then incubated for 1 h with increasing concentrations of FTS (●, ▴, ▪) or GTS (∘, Δ, □) before extracts were prepared. Immunoprecipitations were then conducted with anti-AU1 antibodies. mTOR kinase activity (●, ∘) was determined by measuring ^32P incorporation into [His^6]PHAS-I in immune complex kinases assays performed with [γ-^32P]ATP. The relative amounts of HA-raptor (▴, Δ) and HA-mLST8 (▪, □) that coimmunoprecipitated with AU1-mTOR were determined after immunoblotting with anti-HA antibodies. The results (mean values±S.E. from 3 experiments) are expressed as percentages of the mTOR activity (FIG. 12A) or coimmunoprecipitating proteins (FIG. 12B) from samples incubated without FTS or GTS, and have been corrected for the amounts of AU1-mTOR immunoprecipitated.
FIG. 12A presents results of immune complex kinases assays with AU1-mTOR from extracts of 293T cells that had been incubated with increasing concentrations of FTS.
Immune complex assay of mTOR activity—AU1-mTOR was immunoprecipitated by using anti-AU1 antibody bound to protein G-agarose beads as described previously (McMahon, et al., (2002) Mol. Cell. Biol. 22, 7428-7438). Endogenous mTOR was immunoprecipitated in the same manner, except that mTAb1 was used instead of anti-AU1 antibody. To measure kinase activity, exhaustively washed immune complexes were suspended in 20 μl of Buffer A (50 mM NaCl, 0.1 mM EGTA, 1 mM dithiothreitol (DTT), […], 10 mM Na-HEPES, and 50 mM β-glycerophosphate, pH 7.4.). The kinase reactions were initiated by adding 20 μl of Buffer A supplemented with 2 mM [γ-^32P]ATP, 20 mM MnCl2 and 40 μg/ml of [His^6]PHAS-I. In experiments in which the effects of wortmannin were investigated, DTT was omitted from the reactions, and [His^6]PHAS-I that had been reduced and alkylated with N-ethylmaleimide was used as substrate. Reactions were terminated after 10 min at 30° by adding SDS sample buffer. Samples were subjected to SDS-PAGE and the relative amounts of ^32P incorporated into [His^6]PHAS-I were determined.

[2] = target: T1, mTOR; experiment: Immune complex assay of mTOR activity, compound added to extracts or immune complexes; format: biochemical; conditions: for PHAS-I kinase activity of AU1-mTOR: extracts incubated with increasing concentrations
Description: 293T cells were transfected with expression vectors for AU1-epitope tagged mTOR, HA-tagged raptor, and HA-tagged mLST8. After 24 h, the overexpressed mTOR was immunoprecipitated with AU1 antibodies, and immune complexes were incubated with increasing concentrations of FTS in a reaction mixture containing 2 mM [γ^32P] ATP (250 μCi/ml), 20 mM MnCl2, and 0.1 mg/ml purified recombinant histidine-tagged PHAS-1. After fifteen minutes the reaction was stopped by adding SDS sample buffer, and samples were subjected to SDS-PAGE. The amount of ^32P incorporated into PHAS-I was determined and expressed as a percentage of that incorporated in the absence of FTS. Mean values±the half the range of two experiments are presented.
293T cells were transfected with pcDNA3 alone (Vec.) or with a combination of pcDNA3AU1-mTOR, pcDNA33HA-Raptor, and pcDNA33HA-mLST8. Extracts of the cells were incubated with increasing concentrations of FTS before AU1-mTOR was immunoprecipated. Samples of the immune complexes were incubated with [γ-^32P]ATP and recombinant [His^6]PHAS-I, then subjected to SDS-PAGE and transferred to an immobilon membrane. After obtaining a phosphorimage of the membrane to detect ^32P-PHAS-I, the membrane was immunoblotted with PThr^36/45 antibodies. Other samples of the immune complexes were subjected to SDS-PAGE and immunoblots were prepared with antibodies to the HA epitope or to mTOR (see FIG. 13A). Extracts of nontransfected 293T cells were incubated with increasing concentrations of FTS before mTOR was immunoprecipated with mTAb1. A control immunoprecipitation was conducted using nonimmune IgG (NI). Immune complexes were subjected to SDS-PAGE and immunoblots were prepared with antibodies to mLST8, mTOR, and raptor.
Samples of extracts from 293T cells overexpressing AU1-mTOR, HA-raptor, and HA-mLST8 were incubated for 1 h with increasing concentrations of FTS (●, ▴, ▪) or GTS (∘, Δ, □) before immunoprecipitations were conducted with anti-AU1 antibodies. mTOR kinase activity (●, ∘) was determined by measuring ^32P incorporation into [His^6]PHAS-I in immune complex kinases assays performed with [γ-^32P]ATP (see FIG. 14A). The relative amounts of HA-raptor (▴, Δ) and HA-mLST8 (▪, □) that coimmunoprecipitated with AU1-mTOR were determined after immunoblotting with anti-HA antibodies (see FIG. 14B). The results (mean values+S.E. from 5 experiments) are expressed as percentages of the mTOR activity (FIG. 14A) or coimmunoprecipitating proteins (FIG. 14B) from samples incubated without FTS or GTS, and have been corrected for the amounts of AU1-mTOR immunoprecipitated.
293T cells were transfected with pcDNA3 alone (Vec.) or with a combination of pcDNA3AU1-mTOR, pcDNA33HARaptor, and pcDNA33HA-mLST8. AU1-mTOR was immunoprecipitated and samples of the washed immune complexes were at incubated […] for 30 min with no inhibitors or with the following: caffeine (1 mM), FTS (50 μM), LY294002 (10 μM), rapamycin (1 μM) plus FKBP12 (10 μM), and 1 μM wortmannin. To prevent destruction of wortmannin, incubations were conducted in the absence of thiol reducing agents. Samples of the immune complexes were incubated for 10 min with 10 mM MnCl2, 1 mM [γ-^32P]ATP, and 50 μg/ml [His^6]PHAS-I to assess mTOR activity. Other samples were rinsed twice, subjected to SDS-PAGE, and immunoblotted with anti-HA and anti-AU1 antibodies to determine the amounts of HA-raptor and HA-mLST8 associated with AU1-mTOR. The relative amounts of ^32P incorporated into PHAS-I were determined by phosphorimaging (see FIG. 15B).

Structure (SMILES) | IC50 ([1]; 293T cells incubated 1 h, read-out: half maximal effect on inhibition of AU1-mTOR activity) [µM] | mTOR activity [1] | concentration at which the effect on mTOR kinase activity could be seen [2] [µM] | concentration of maximal effect on mTOR kinase activity [2] [µM] | mTOR activity ([2]; FTS 50 μM, comparison with other mTOR inhibitors) | PHAS-I kinase activity of AU1-mTOR [2] | concentrations needed to inhibit mTOR activity in vitro relative to intact cells ([2]; extracts vs intact cells) | ability of mTOR to phosphorylate a substrate specific to mTOR ([2]; recombinant mTOR immunoprecipitated from transfected cells) | concentrations for effects on AU1-mTOR activity and AU1-mTOR/HA-raptor association relative to FTS ([2]; extracts of transfected cells)
CC(C)=CCC/C(C)=C/CC/C(C)=C/CSc1ccccc1C(=O)O [FTS, farnesylthiosalicylic acid] | 20 to 30 | stable decrease in mTOR activity | 25 | 100 | decreased | progressively decreased | Approximately four times lower | completely blocked | –
CC(C)=CCC/C(C)=C/CSc1ccccc1C(=O)O [GTS, S-geranylthiosalicylic acid, reference compound] | – | slightly decreased | – | – | – | progressive decreases | – | – | approximately ten times higher
